Assay results taken from publication PMC10541190 (The Journal of Clinical Investigation, 2023).
Several values for one entry are separate records, joined by “and”; a condition that tells them apart may be missing. Identical values can stand only once. Like-named read-outs stand apart in the source and are kept apart here. [ ]: non-standard residue; d: D form. Nle = CCCC[C@H](N)C(=O)O

How the values were obtained:
[1] = test system: SARS-CoV-2 (USA-WA1/2020); assay: microbe, parasite or virus in culture; assay type: cell-based
in vitro [2] = conditions: African green monkey
in vitro [3] = conditions: human, U-87 MG cell viability (%)
in vitro [4] = conditions: human, Huh7 cell viability (%)

Compound | SARS-CoV-2 infection (%) ([1]; 0.625 μM) | SARS-CoV-2 infection (%) ([1]; 1.25 μM) | SARS-CoV-2 infection (%) ([1]; 5 μM) | SARS-CoV-2 infection (%) ([1]; 20 μM) | Cell viability (%) (Vero cells; 0.625 μM) | Cell viability (%) (Vero cells; 1.25 μM) | Cell viability (%) (Vero cells; 5 μM) | Cell viability (%) (Vero cells; 20 μM) | viability at 0.625 µM (in vitro [2]; Cell viability (%), 0.625 μM) | viability at 1.25 µM (in vitro [2]; Cell viability (%), 1.25 μM) | viability at 5 µM (in vitro [2]; Cell viability (%), 5 μM) | viability at 20 µM (in vitro [2]; Cell viability (%), 20 μM) | viability at 0.37 µM (in vitro [3]) | viability at 3.33 µM (in vitro [3]) | viability at 10 µM (in vitro [3]) | viability at […] (in vitro [3]) | other results
CC[C@@]1([C@@H]2O[C@@H]([C@H]3O[C@@](O)(CO)[C@H](C)C[C@@H]3C)C[C@@H]2C)CC[C@H]([C@]2(C)CC[C@]3(C[C@H](O)[C@@H](C)[C@@H]([C@@H](C)[C@@H](OC)[C@H](C)C(=O)O)O3)O2)O1 [Monen-sin] | 74.16% and 84.27% and 91.01% | 33.71% and 60.67% and 53.93% | 0.0742% and 0.09% and 0.07% | 0.0337% | 106.13% and 103.45% | 110.73% and 112.93% | 95.75% and 98.96% | 97.54% and 96.71% | 103% | 113% | 100% | 98.8% | 82% | 78.7% | 79.7% | 79.2% and 83.3% | –
CO[C@@H]1[C@@H](O[C@@H]2O[C@H](C)[C@@H](O[C@H]3C[C@@](C)(O)[C@@H](OC(=O)CC(C)C)[C@H](C)O3)[C@H](N(C)C)[C@H]2O)[C@@H](CC=O)C[C@@H](C)[C@@H](O)/C=C/C=C/C[C@@H](C)OC(=O)C[C@H]1OC(C)=O [Josamycin] | – | – | – | – | – | – | – | – | – | – | – | – | – | – | – | – | EC50 ([1]; Severe acute respiratory syndrome coronavirus 2, Vero, 24 h, read-out: SARS-CoV-2 EC50): 2.4 µM; CC50 (in vitro [2]): > 20 µM; viability at 0.37 µM (in vitro [4]): 94.1%; viability at 3.33 µM (in vitro [4]): 97.2%; viability at 10 µM (in vitro [4]): 98.2%; viability at […] (in vitro [4]): 96.6% and 93.2%
Ac-Leu-Leu-[Nle]-aldehyde | – | – | – | 2.73% and 1.37% and 0.00% | – | – | – | – | – | – | – | – | – | – | – | – | CC50 (Vero cells): > 20 µM; Cell viability (%) (Vero cells; 0.25 μM): 91.85%; Cell viability (%) (Vero cells; 0.74 μM): 90.53%; Cell viability (%) (Vero cells; 6.67 μM): 98.46%
CC(C)(C)NCC(O)c1ccc(O)c(CO)c1 (stereo not shown) [Salbuta-mol] | 85.71% and 108.79% and 115.38% | 128.57% and 98.90% | 92.31% and 118.68% and 115.38% | 105.49% and 89.01% | – | – | – | – | – | – | – | – | – | – | – | – | –
O=C(CCCN1CCC2(CC1)C(=O)NCN2c1ccccc1)c1ccc(F)cc1 [Spiperone] | – | – | – | – | – | – | – | – | – | – | – | – | – | – | – | – | CC50 (in vitro [2]): > 20 µM; viability at 0.37 µM (in vitro [4]): 99.5%; viability at 3.33 µM (in vitro [4]): 79.2%; viability at 10 µM (in vitro [4]): 75.7%; viability at […] (in vitro [4]): 97% and 99.9%
CC(C)(C)c1cc(C=C(C#N)C#N)cc(C(C)(C)C)c1O [Tyrphos-tin A9] | 101.12% and 121.35% and 124.72% | 131.46% and 128.09% and 114.61% | 107.87% and 117.98% and 101.12% | 9.10% and 6.07% and 8.43% | 112.22% and 113.82% | 118.35% and 120.78% | 96.34% | 97.68% and 97.70% | 107% | 111% | 96.3% | 91.5% | – | – | – | – | –
O[C@H]1[C@H]2c3cc4c(cc3CN3CCC(=C[C@@H]1O)[C@H]23)OCO4 [Lyco-rine] | 7.08% and 5.06% and 8.76% | 0.34% and 0.40% and 0.24% | 0.00337% | 0.00337% | 98.69% | 103.60% and 104.02% | 84.99% and 87.96% | 88.99% and 91.05% | 93.8% | 97.9% | 83% | 83% | – | – | – | – | –
O=C1NCN(c2ccccc2)C12CCN(CCCC(c1ccc(F)cc1)c1ccc(F)cc1)CC2 [Fluspiri-lene] | 121.35% and 117.98% and 101.12% | 111.24% and 114.61% and 104.49% | 114.61% and 94.38% and 111.24% | 3.37% and 2.70% and 4.04% | 103.85% and 102.73% | 105.07% and 105.49% | 94.12% and 91.52% | 83.60% and 85.38% | 105% | 108% | 94% | 85.1% | 97% | 102% | 93.8% | 97.8% and 97.9% | –
Aurothioglucose | – | – | – | – | – | – | – | – | – | – | – | – | – | – | – | – | CC50 (Vero cells): > 20 µM
[N-]=[N+]=CC(=O)OC[C@H](N)C(=O)O [Aza-serine] | – | – | – | 0.00% | – | – | – | 91.48% and 89.75% | – | – | – | 87.1% | – | 94.5% | 84% | – | SARS-CoV-2 infection (%) ([1]; 0.2469 μM): 107.69% and 86.64%; SARS-CoV-2 infection (%) ([1]; 2.2222 μM): 7.01% and 8.09%; SARS-CoV-2 infection (%) ([1]; 6.6667 μM): 2.70% and 1.62%; Cell viability (%) (Vero cells; 0.2469 μM): 103.32%; Cell viability (%) (Vero cells; 2.2222 μM): 96.19% and 95.62%; Cell viability (%) (Vero cells; 6.6667 μM): 94.50% and 92.95%; viability at 0.2469 µM (in vitro [2]; Cell viability (%), 0.2469 μM): 87.9%; viability at 2.2222 µM (in vitro [2]; Cell viability (%), 2.2222 μM): 89.7%; viability at 6.6667 µM (in vitro [2]; Cell viability (%), 6.6667 μM): 92.2%
CN(C)C(=O)C(CCN1CCC(O)(c2ccc(Cl)cc2)CC1)(c1ccccc1)c1ccccc1 [Lopera-mide] | – | – | – | – | – | – | – | – | – | – | – | – | 98.7% | 101% | 97.5% | 100% and 98.5% | Cell viability (%) (Vero cells; African green monkey, 20 µM): 99.64%; viability at 0.625 µM (in vitro [2]; Cell viability (%)): 115%; viability at 1.25 µM (in vitro [2]; Cell viability (%)): 121%; viability at 5 µM (in vitro [2]; Cell viability (%)): 105%; viability at 20 µM (in vitro [2]; Cell viability (%)): 98.5%
CO[C@@H]1[C@@H](O[C@@H]2O[C@H](C)[C@@H](O[C@H]3C[C@@](C)(O)[C@@H](OC(=O)CC(C)C)[C@H](C)O3)[C@H](N(C)C)[C@H]2O)[C@@H](CC=O)C[C@@H](C)[C@@H](O)/C=C/C=C/C[C@@H](C)OC(=O)C[C@H]1OC(C)=O [Josa-mycin] | – | – | – | 8.09% and 10.77% | – | – | – | – | – | – | – | – | 90.4% | 91.6% | 100% | 91.6% and 95.3% | SARS-CoV-2 infection (%) [1]: 107.69% and 101.94%; SARS-CoV-2 infection (%) ([1]; 2.22 μM): 48.50% and 53.93%; SARS-CoV-2 infection (%) ([1]; 6.67 μM): 16.19% and 21.54%; Cell viability (%) (Vero cells; 2.22 μM): 93.52% and 91.16%; Cell viability (%) (Vero cells; 6.67 μM): 93.20% and 88.03%; viability at 0.247 µM (in vitro [2]; Cell viability (%)): 102%; viability at 20 µM (in vitro [2]; Cell viability (%)): 89.7%; viability at 2.22 µM (in vitro [2]; Cell viability (%), 2.22 μM): 96.9%; viability at 6.67 µM (in vitro [2]; Cell viability (%), 6.67 μM): 93%
O=C(CCCN1CCC2(CC1)C(=O)NCN2c1ccccc1)c1ccc(F)cc1 [Spipe-rone] | 124.72% and 114.61% and 131.46% | 107.87% and 117.98% and 101.12% | 15.17% and 17.19% and 12.81% | 0.47% and 0.20% and 0.30% | 94.16% and 92.89% | 101.11% | 96.86% and 95.76% | 101.04% | 91.9% | 99.9% | 94.3% | 97.4% | 99.2% | 101% | 97% | 99.5% and 99.9% | –
Penitrem A | 91.01% and 104.49% and 97.75% | 111.24% and 101.12% and 94.38% | 117.98% and 128.09% and 111.24% | 6.40% and 7.08% and 9.44% | – | – | – | – | – | – | – | – | – | – | – | – | –
CN(C)C(=O)C(CCN1CCC(O)(c2ccc(Cl)cc2)CC1)(c1ccccc1)c1ccccc1 [Loperamide] | – | – | – | – | – | – | – | – | – | – | – | – | – | – | – | – | CC50 (in vitro [2]): > 20 µM; viability at 0.123 µM (in vitro [4]): 92.4%; viability at 0.37 µM (in vitro [4]): 91.8%; viability at 3.333 µM (in vitro [4]): 88.9%; viability at 10 µM (in vitro [4]): 68.3%
